Here are results for three molecules from article PMC11124387, “A Reliable Multifaceted Solution against Foodborne Viral Infections: The Case of RiLK1 Decapeptide” (Molecules, 2024).

Where “and” joins values, the source holds several entries; their conditions need not be identical. Equal values may be shown once. Read-outs that look alike come from different tables or passages of the source. Where a SMILES comes first, the peptide text is derived from it.

For test [1], the system named is Hepatitis A virus (HAV) strain HM-175. The following applies: cited from earlier work; for LRV (log reduction value) / Viral Titre after Treatment: RT (20 ± 2 °C), mean ± SD, ref [46] (table footnote; text b35 cites [45]). An excerpt: Table 2 In vitro effect of peptides on HAV. | column: Viral Titre after Treatment (logTCID50/mL ± SD) / RT; LRV (logTCID50/mL ± SD) / RT || In a previous work, the antiviral effects of RiLK1 and RiLK3 were already investigated against hepatitis A virus (HAV) following treatment at room temperature, and the obtained results are reported in Table 2. Briefly, RiLK1 was able to reduce HAV infectivity by more than 1 log in comparison with the untreated virus, displaying a log reduction value (LRV) of 1.4 at 80 μM and 1.1 at 40 μM concentration. […] Therefore, based on these preliminary results, further insights into the virucidal activity ...

Test [2] relates to Murine norovirus strain 1 (MNV-1). Put plainly: Entry assay, MNV-1. The following applies: entry: cells with virus 1 h at 4 °C, then peptide 80 µM 1 h 37 °C, mean ± SD. Type of test: cell-based. How it is done:
(§1) Four sets of experiments were performed to suppose the effect of RiLK1 and RiLK3 on HAV and MNV-1 [29]. To this aim, 80 µM solutions of the two peptides and HAV and MNV-1 suspensions at a final concentration of 4.7 ± 0.2 log TCID50/mL and 4.5 ± 0.2 log TCID50/mL, respectively, were used in the following experiments: • i) A virus pre-treatment assay to assess the direct interaction between the virus and peptide: the incubation of the peptide with viral suspension for 1 h at room temperature was carried out, followed by its incubation on cells for 1 h at 37 °C. Then, cell monolayers were washed twice with PBS and incubated with 500 µL DMEM/MEM supplemented with 2% of FBS to determine the TCID50/mL. • ii) A cell pre-treatment assay to assess the interaction between the peptide and cells before the viral infection: cell monolayers were preincubated with 100 µL of peptide solution for 1 h at 37 °C, followed by the removal of the peptide, addition to cells of viral suspensions for 1 h at 37 °C, washing step, and culture with 2% FBS DMEM/MEM. • iii) An attachment assay to assess the possible action of the peptide at the stage of virus attachment to cells: cell monolayers were incubated with 100 µL of a suspension containing both the peptide and virus and were incubated for 1 h at 4 °C. Subsequently, the cell monolayers were washed with PBS and incubated for 1 h at 37 °C with a culture medium followed by a washing step and the addition of culture with 2% FBS DMEM/MEM. • iv) An entry assay to assess the possible action of the peptide at the stage of virus internalization into cells: cell monolayers were incubated with 100 µL of the viral suspension for 1 h at 4 °C, followed by the addition of the peptide and incubation for 1 h at 37 °C. Cells were then washed with PBS, and 2% FBS DMEM/MEM was finally added.
(§2) Untreated viral suspensions and peptide solutions, incubated at the same conditions, were used as controls.
(§3) For each treatment, the average and standard deviation of the triplicate analyses were calculated. The virucidal effects of AMPs was assessed by calculating the log reduction value (LRV), i.e., the difference between the infectious titer (log-transformed) of untreated versus treated samples. The statistical significance of differences between treated and untreated samples was determined through one-way analysis of variance (ANOVA) with Bonferroni post hoc comparisons, with a significance level of p < 0.05 (GraphPad Prism v9.5.0, software San Diego, CA, USA).

In test [3] the test system is Hepatitis A virus (HAV) strain HM-175. The experiment in a line: Attachment assay, HAV. Type of test: cell-based. The following applies: attachment: cells with peptide 80 µM and virus together 1 h at 4 °C, mean ± SD. How it is done:
as §1, §2, §3

The test system is the same in test [4]. Put plainly: Entry assay, HAV. The following applies: entry: cells with virus 1 h at 4 °C, then peptide 80 µM 1 h 37 °C, mean ± SD. Type of test: cell-based. How it is done: as §1, §2, §3
Test [5] has as its system Murine norovirus strain 1 (MNV-1). Put plainly: Cell pre-treatment assay, MNV-1. Type of test: cell-based. Particulars: cell pre-treatment: cells with peptide 80 µM 1 h 37 °C, peptide removed, then virus 1 h 37 °C, mean ± SD. How it is done:
as §1, §2, §3

The subject of another test is Campylobacter jejuni. In kind it is cell-based. Particulars: peptide 40 and 80 µM, 6 h at 37 °C. An excerpt: The monophasic variant of Salmonella Typhimurium, Salmonella Napoli, and Campylobacter jejuni were isolated by the Laboratory of Microbiological Food Control—Department of Food Microbiology of the Istituto Zooprofilattico Sperimentale del Mezzogiorno in Portici (Naples, Italy) in raw and processed foodstuffs of animal origin. Specifically, the monophasic variant of S. Typhimurium and S. Napoli were isolated from bivalve mollusks, while C. jejuni was isolated from poultry meat. Bacterial cells were cultured at 37 °C in the appropriate culture media (S. Typhimurium and S. Napoli in buffered peptone water (Thermo Fisher, Milan, Italy) and C. jejuni in Bolton Broth (Oxoid, Madrid, Spain)) until collection and then diluted in fresh broth to a final concentration of 1.5 × 10^3 colony forming units (CFUs)/mL. Thereafter, peptide stock solutions in DMSO were added to the bacterial suspension at the same concentrations used in the virucidal assays (40 and 80 µM) and incubated at 37 °C for 6 h. Samples containing only cell suspension and DMSO were used as controls. […]

In the case of “RLRWVRIWRR-NH2 [RiLK3, RiLK1 analog differing by one amino acid (Lys replaced with Arg), C-terminally amidated]”, the “inhibition of HAV infection (in words)” value in test [1] (40 and 80 µM, room temperature, ref [45]) is “unable to inhibit HAV infection”. Further, the “LRV (log reduction value)” value in test [1] (HAV + peptide 40 µM) and in test [1] (HAV + peptide 80 µM) was 0.3 ± 0.3 ^a logTCID50/mL each time. Further, the “Viral Titre after Treatment” value in test [1] (HAV + peptide 40 µM) and in test [1] (HAV + peptide 80 µM) was 4.4 ± 0.1 ^a logTCID50/mL throughout. Also, the LRV in test [2] was 1.0 ± 0.3 logTCID50/mL; in test [3], 1.0 logTCID50/mL and 1.0 ± 0.4 logTCID50/mL; in test [4] it was 0.5 ± 0.4 logTCID50/mL; in test [5] it was 1.0 logTCID50/mL and 1.0 ± 0.3 logTCID50/mL. The “Viral Titre” value came to 3.5 ± 0.1 logTCID50/mL in test [2], 3.7 ± 0.2 logTCID50/mL in test [3], 4.2 ± 0.2 logTCID50/mL in test [4] and 3.5 ± 0.1 logTCID50/mL in test [5].
As for `CC[C@H](C)[C@H](NC(=O)[C@H](CCCNC(=N)N)NC(=O)[C@@H](NC(=O)[C@H](Cc1c[nH]c2ccccc12)NC(=O)[C@H](CCCCN)NC(=O)[C@H](CC(C)C)NC(=O)[C@@H](N)CCCNC(=N)N)C(C)C)C(=O)N[C@@H](Cc1c[nH]c2ccccc12)C(=O)N[C@@H](CCCNC(=N)N)C(=O)N[C@@H](CCCNC(=N)N)C(N)=O` [RiLK1] (H-RLKWVRIWRR-NH2; N-terminus assumed), the “LRV (log reduction value)” value in test [1] (HAV + peptide 40 µM) is 1.1 logTCID50/mL and 1.1 ± 0.3 *^,a logTCID50/mL; in test [1] (HAV + peptide 80 µM), 1.4 logTCID50/mL and 1.4 ± 0.4 *^,a logTCID50/mL. In addition, the “Viral Titre after Treatment” value is 3.6 ± 0.1 *^,a logTCID50/mL in test [1] (HAV + peptide 40 µM) and 3.3 ± 0.2 *^,a logTCID50/mL in test [1] (HAV + peptide 80 µM). Moreover, in test [1] (room temperature, ref [45]), the “reduction of HAV infectivity in comparison with the untreated virus” value was “more than 1 log”. Further, the LRV was 1.0 ± 0.4 logTCID50/mL in test [2]; 1.0 logTCID50/mL in test [2] (listed as RilLK1); 1.4 logTCID50/mL and 1.4 ± 0.4 logTCID50/mL in test [3]; 0.1 ± 0.3 logTCID50/mL in test [4]; 0.3 ± 0.4 logTCID50/mL in test [5]. Also, the “Viral Titre” value in test [2] is on record as 3.5 ± 0.2 logTCID50/mL; in test [3] it was 3.3 ± 0.2 logTCID50/mL; in test [4], 4.6 ± 0.1 logTCID50/mL; in test [5], 4.2 ± 0.2 logTCID50/mL.
For the molecule “KLRWVKIWKK-NH2 [RiLK30, newly designed RiLK1 derivative, Arg residues exchanged with Lys and Lys3 with Arg]”, in the test with Campylobacter jejuni, the “inhibitory activity against Campylobacter jejuni (in words)” value is “the most ineffective”.
